These results are taken from patent US11339157B1, “4H-pyrrolo[3,2-c]pyridin-4-one derivatives” (Bayer Aktiengesellschaft, priority 2017, dated 2022).

Molecules are shown by their SMILES. Where only a bound is given, the exact number is not on record here.

Test [1] addresses EGFR ins SVD (insertion of SVD between D770 and N771) (Homo sapiens, UniProt P00533, INS767SVD). Description: Exon 20-Mutant-EGFR(D770_N771insSVD) kinase assay (TR-FRET). In kind it is biochemical. As to conditions: Table 9; read-out: mutEGFR (D770_N771insSVD) kinase assay IC50.
Test [2] relates to Ba/F3-EGFR-WT cells. Nature of the test: Proliferation assay in BA/F3 (wild type) cells (Cell Titer-Glo). As to conditions: Mus musculus. In kind it is cell-based. As for the experimental part: (§1) Cellular Data Description (WT, insSVD, Ins ASV)
(§2) Plates were incubated at 37° C. for 48 h. Retrovirus was harvested by filtering the media supernatant through a 0.45 μm filter.
(§3) Ba/F3 cells purchased from DSMZ were grown in RPMI+10% FBS+10 ng/mL IL-3 and infected with filtered retroviral supernatant at a 1:2 dilution. Polybrene was added to a concentration of 8 μg/mL, plates were spun for 90 min, and incubated overnight at 37° C. 2 μg/mL puromycin was added to the infected cells 24 h after infection and cells were continually grown in the presence of puromycin and 10 ng/mL IL-3. Following stably expressing Ba/F3 cell lines were generated: Ba/F3-EGFR-WT, Ba/F3-EGFR-insSVD.
(§4) The cells ectopically expressing WT EGFR were plated with 10 ng/mL Millipore Culture grade EGF. The cells ectopically expressing EGFR-insSVD were plated without EGF.
(§5) 100 nL of compound was added to each well using a 100 nL pin head, and plates were incubated at 37° C. for 48 h.
(§6) Cell viability was measured by adding 30 μL of Cell Titer-Glo Luminescent Cell Viability Reagent. Plates were sealed with Perkin Elmer Top-Seal, inverted several times to mix, and immediately centrifuged at 1000 rpm for 2 min. Plates were incubated in low light conditions for 8-10 min and luminescence was measured.

Test [3] deals with Ba/F3-EGFR-insSVD cells. Nature of the test: Proliferation assay in BA/F3 (ins SVD) cells (Cell Titer-Glo). To be noted: Mus musculus. In kind it is cell-based. As for the experimental part: as §1, §2, §3, §4, §5, §6
Setting [4] is: BaF3, 48 h, Table 10, plated with 10 ng/mL EGF.
The mark [5] stands for this setting: BaF3, 48 h, Table 10, plated without EGF.
Where [6] appears, read: BaF3, Table 10, plated with 10 ng/mL EGF, 48 h.
The mark [7] stands for this setting: BaF3, Table 10, plated without EGF, 48 h.

EGFR ins SVD (insertion of SVD between D770 and N771), sequence (P00533 with tags, fused parts or gaps INS767SVD limits assumed): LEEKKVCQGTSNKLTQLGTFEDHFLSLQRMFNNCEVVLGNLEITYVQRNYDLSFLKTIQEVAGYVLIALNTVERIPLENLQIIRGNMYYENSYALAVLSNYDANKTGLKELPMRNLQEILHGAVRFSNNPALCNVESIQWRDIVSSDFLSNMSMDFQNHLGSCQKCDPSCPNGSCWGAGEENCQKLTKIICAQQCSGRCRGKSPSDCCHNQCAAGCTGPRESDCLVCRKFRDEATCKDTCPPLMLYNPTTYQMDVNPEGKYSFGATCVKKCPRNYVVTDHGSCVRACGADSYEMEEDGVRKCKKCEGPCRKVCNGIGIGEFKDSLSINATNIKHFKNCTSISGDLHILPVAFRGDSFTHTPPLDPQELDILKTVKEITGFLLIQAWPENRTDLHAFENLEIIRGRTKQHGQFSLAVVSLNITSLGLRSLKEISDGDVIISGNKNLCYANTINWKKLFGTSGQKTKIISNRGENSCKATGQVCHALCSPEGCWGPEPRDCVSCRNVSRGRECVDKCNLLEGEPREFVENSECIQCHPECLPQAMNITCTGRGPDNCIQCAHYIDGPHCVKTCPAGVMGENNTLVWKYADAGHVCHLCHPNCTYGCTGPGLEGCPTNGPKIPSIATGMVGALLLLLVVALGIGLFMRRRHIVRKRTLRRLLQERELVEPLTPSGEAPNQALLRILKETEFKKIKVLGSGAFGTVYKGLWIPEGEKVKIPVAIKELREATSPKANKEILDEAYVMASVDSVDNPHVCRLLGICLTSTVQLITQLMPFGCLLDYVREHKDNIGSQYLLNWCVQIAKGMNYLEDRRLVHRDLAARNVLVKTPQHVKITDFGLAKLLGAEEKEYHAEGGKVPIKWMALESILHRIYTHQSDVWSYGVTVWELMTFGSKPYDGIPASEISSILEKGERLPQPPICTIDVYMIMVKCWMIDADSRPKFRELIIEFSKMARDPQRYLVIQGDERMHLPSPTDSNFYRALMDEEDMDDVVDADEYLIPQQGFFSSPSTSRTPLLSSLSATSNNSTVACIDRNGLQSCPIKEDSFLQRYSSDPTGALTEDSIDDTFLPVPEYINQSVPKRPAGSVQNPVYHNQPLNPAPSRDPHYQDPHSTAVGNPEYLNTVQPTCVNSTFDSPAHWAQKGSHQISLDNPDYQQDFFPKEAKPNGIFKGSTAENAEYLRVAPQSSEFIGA

Turning to `COc1c(Cl)cccc1Nc1c(-c2ccncc2OC[C@@H]2CCCN2C)[nH]c2c1C(=O)NCC2` [Example 48, 3-(3-chloro-2-methoxyanilino)-2-(3-{[(2S)-1-methylpyrrolidin-2-yl]methoxy}pyridin-4-yl)-1,5,6,7-tetrahydro-4H-pyrrolo[3,2-c]pyridin-4-one], the IC50 was 0.358 nM in test [1], 276 nM in test [2] (setting [4]) and 5.59 nM in test [3] (setting [5]).

With `Cc1c(F)cccc1Nc1c(-c2ccncc2OC[C@@H]2CCCN2C)[nH]c2c1C(=O)NCC2` [Example 49, 3-(3-fluoro-2-methylanilino)-2-(3-{[(25)-1-methylpyrrolidin-2-yl]methoxy}pyridin-4-yl)-1,5,6,7-tetrahydro-4H-pyrrolo[3,2-c]pyridin-4-one], the results for the IC50 in test [1], in test [2] (setting [6]) and in test [3] (setting [7]) were 0.518 nM, 919 nM and 19.1 nM, respectively.

With `CN1CCC[C@H]1COc1cnccc1-c1[nH]c2c(c1Nc1cccc(Cl)c1OC(F)F)C(=O)NCC2` [Example 50, 3-[3-chloro-2-(difluoromethoxy)anilino]-2-(3-{[(2S)-1-methylpyrrolidin-2-yl]methoxy}pyridin-4-yl)-1,5,6,7-tetrahydro-4H-pyrrolo[3,2-c]pyridin-4-one], the IC50 in test [1] is 1.26 nM; in test [2] (setting [4]), 2100 nM; in test [3] (setting [5]) it was 60.9 nM.

Regarding `Cc1c(F)cc(F)cc1Nc1c(-c2ccncc2OC[C@@H]2CCCN2C)[nH]c2c1C(=O)NCC2` [Example 51, 3-(3,5-difluoro-2-methylanilino)-2-(3-{[(2S)-1-methylpyrrolidin-2-yl]methoxy}pyridin-4-yl)-1,5,6,7-tetrahydro-4H-pyrrolo[3,2-c]pyridin-4-one], the IC50 in test [1] was found to be 0.732 nM; in test [2] (setting [6]), 3290 nM; in test [3] (setting [7]), 107 nM.

On to `Cc1c(Cl)cccc1Nc1c(-c2ccncc2OCCN(C)C)[nH]c2c1C(=O)NCC2` [Example 52, 3-(3-chloro-2-methylanilino)-2-{3[2-(dimethylamino)ethoxy]pyridin-4-yl}1,5,6,7-tetrahydro-4H-pyrrolo[3,2-c]pyridin-4-one], for which the IC50 worked out at 0.55 nM in test [1], 834 nM in test [2] (setting [4]) and 29.1 nM in test [3] (setting [5]).

In the case of `COc1c(F)cccc1Nc1c(-c2ccncc2OCCN(C)C)[nH]c2c1C(=O)NCC2` [Example 53, 2-{3-[2-(dimethylamino)ethoxy]pyridin-4-yl}-3-(3-fluoro-2-methoxyanilino)-1,5,6,7-tetrahydro-4H-pyrrolo[3,2-c]pyridin-4-one], the IC50 in test [1] was 0.332 nM; in test [2] (setting [4]), 804 nM; in test [3] (setting [5]) it was 31.1 nM.

`COc1c(Cl)cccc1Nc1c(-c2ccncc2OCCN(C)C)[nH]c2c1C(=O)NCC2` [Example 54, 3-(3-chloro-2-methoxyanilino)-2-{3-[2-(dimethylamino)ethoxy]pyridin-4-yl}-1,5,6,7-tetrahydro-4H-pyrrolo[3,2-c]pyridin-4-one]: the half-maximal inhibitory concentration (IC50) in test [1] turned out to be 0.912 nM; in test [2] (setting [4]) it was 1300 nM; in test [3] (setting [5]) it was 37.5 nM.

In the case of `Cc1c(F)cc(F)cc1Nc1c(-c2ccncc2OCCN(C)C)[nH]c2c1C(=O)NCC2` [Example 55, 3-(3,5-difluoro-2-methylanilino)-2-{3-[2-(dimethylamino)ethoxy]pyridin-4-yl}-1,5,6,7-tetrahydro-4H-pyrrolo[3,2-c]pyridin-4-one], the IC50 in test [1] is 0.465 nM; in test [2] (setting [4]) it was 2830 nM; in test [3] (setting [5]), 303 nM.

For `Cc1c(F)cccc1Nc1c(-c2ccncc2OCCN(C)C)[nH]c2c1C(=O)NCC2` [Example 56, 2-{3-[2-(dimethylamino)ethoxy]pyridin-4-yl}-3-(3-fluoro-2-methylanilino)-1,5,6,7-tetrahydro-4H-pyrrolo[3,2-c]pyridin-4-one], the IC50 in test [1] worked out at 0.562 nM; in test [2] (setting [4]), 1900 nM; in test [3] (setting [5]), 242 nM.

`COc1c(F)cccc1Nc1c(-c2ccncc2OCCC(C)(C)OC)[nH]c2c1C(=O)NCC2` [Example 57, 3-(3-fluoro-2-methoxyanilino)-2-[3-(3-methoxy-3-methylbutoxy)pyridin-4-yl]1,5,6,7-tetrahydro-4H-pyrrolo[3,2-c]pyridin-4-one]: the IC50 in test [1] was determined as 0.228 nM; in test [2] (setting [4]) it was 535 nM; in test [3] (setting [5]), 14.7 nM.

In the case of `CCOC(C)(C)COc1cnccc1-c1[nH]c2c(c1Nc1cccc(F)c1OC)C(=O)NCC2` [Example 58, 2-[3-(2-ethoxy-2-methylpropoxy)pyridin-4-yl]-3-(3-fluoro-2-methoxyanilino)-1,5,6,7-tetrahydro-4H-pyrrolo[3,2-c]pyridin-4-one], the IC50 in test [1] turned out to be 0.113 nM; in test [2] (setting [4]), 561 nM; in test [3] (setting [5]), 18.6 nM.

`COc1c(Cl)cccc1Nc1c(-c2ccncc2OCC(C)(C)O)[nH]c2c1C(=O)NCC2` [Example 59, 3-(3-chloro-2-methoxyanilino)-2-[3-(2-hydroxy-2-methylpropoxy)pyridin-4-yl]-1,5,6,7-tetrahydro-4H-pyrrolo[3,2-c]pyridin-4-one]: the IC50 in test [1] was less than 0.0725 nM; in test [2] (setting [4]) it was 542 nM; in test [3] (setting [5]), 17.7 nM.

As for `Cc1c(Cl)cccc1Nc1c(-c2ccncc2OCC(C)(C)N(C)C)[nH]c2c1C(=O)NCC2` [Example 60, 3-(3-chloro-2-methylanilino)-2-{3-[2-(dimethylamino)-2-methylpropoxy]pyridin-4-yl}-1,5,6,7-tetrahydro-4H-pyrrolo[3,2-c]pyridin-4-one], the values for the IC50 in test [1], in test [2] (setting [4]) and in test [3] (setting [5]) were 0.695 nM, 1750 nM and 38.6 nM, respectively.

In the case of `Cc1c(F)cccc1Nc1c(-c2ccncc2OCC(C)(C)N(C)C)[nH]c2c1C(=O)NCC2` [Example 61, 2-{3-[2-(dimethylamino)-2-methylpropoxy]pyridin-4-yl}-3-(3-fluoro-2-methylanilino)-1,5,6,7-tetrahydro-4H-pyrrolo[3,2-c]pyridin-4-one], the results for the IC50 in test [1], in test [2] (setting [4]) and in test [3] (setting [5]) were 1.12 nM, 1460 nM and 88.9 nM, respectively.

With `Cc1c(F)cc(F)cc1Nc1c(-c2ccncc2OCC(C)(C)N(C)C)[nH]c2c1C(=O)NCC2` [Example 62, 3-(3,5-difluoro-2-methylanilino)-2-{3-[2-(dimethylamino)-2-methylpropoxy]pyridin-4-yl}-1,5,6,7-tetrahydro-4H-pyrrolo[3,2-c]pyridin-4-one], the IC50 in test [1] is 0.663 nM; in test [2] (setting [4]), 2760 nM; in test [3] (setting [5]), 166 nM.

In the case of `COc1c(Cl)cccc1Nc1c(-c2ccncc2OCC2CCCCN2C)[nH]c2c1C(=O)NCC2` (stereo not drawn) [Example 63, 3-(3-chloro-2-methoxyanilino)-2-(3-{[1-methylpiperidin-2-yl]methoxy}pyridin-4-yl)-1,5,6,7-tetrahydro-4H-pyrrolo[3,2-c]pyridin-4-one], the IC50 in test [1] was found to be 0.509 nM; in test [2] (setting [4]) it was 485 nM; in test [3] (setting [5]) it was 12.3 nM.

Regarding `CN(C)CCOc1cnccc1-c1[nH]c2c(c1Nc1cccc(F)c1OC(F)F)C(=O)NCC2` [Example 64, 3-[2-(difluoromethoxy)-3-fluoroanilino]-2-{3-[2-(dimethylamino)ethoxy]pyridin-4-yl}-1,5,6,7-tetrahydro-4H-pyrrolo[3,2-c]pyridin-4-one], the IC50 in test [1] worked out at 0.443 nM; in test [2] (setting [4]) it was 1890 nM; in test [3] (setting [5]), 121 nM.

With `COc1c(Cl)cccc1Nc1c(-c2ccncc2OCC2CCCCO2)[nH]c2c1C(=O)NCC2` (stereo not drawn) [Example 68], the results for the IC50 in test [1], in test [2] (setting [4]) and in test [3] (setting [5]) were 0.115 nM, 109 nM and 2.94 nM, respectively.
